The source of these data is patent US11986530B2, “Drug composition for parenteral administration” (THERABIOPHARMA INC., priority 2016, dated 2024).

The subject of data set [1] is U266. The following applies: U266, in vitro; cited from earlier work.
In data set [2] the test system is human hepatocellular carcinoma cell lines (HepG2 cells). The following applies: cited from earlier work.
Data set [3] concerns KBM-5. Conditions: KBM-5, in vitro; cited from earlier work.
In data set [4] the test system is β-glucuronidase. Conditions: 10 μL of 2.81 μg/mL substrate, pH 5.0, 37° C., 1 hour, n=3.
Method: In this regard, as a control, curcumin monoglucuronide was used for the examination.
In addition, as the curcumin diglucuronide, commercially available curcumin diglucuronide (manufactured by SynInnova Laboratories Inc.) was used.
Next, into the resultant mixture, 0.5 mL of chloroform was added, and the mixture was stirred for 1 minute with a vortex mixer, and then the stirred mixture was treated for 15 minutes by using an ultrasonic generator, and the treated mixture was fractionated into a chloroform layer and a water layer by centrifugation (10,000×g, for 5 minutes, at room temperature). Further, this fractionation process was repeated twice. After that, the chloroform layer was collected, and dried and solidified by distilling off the solvent with a vacuum centrifugal concentrator, and to the dried and solidified matter, 100 μL of 50% (v/v) methanol was added, and then the resultant mixture was centrifuged (10,000×g, for 5 minutes, at room temperature) to collect a supernatant liquid, and the collected supernatant liquid was taken as an enzyme-treated sample.
In 2 μL of the enzyme-treated sample prepared in the above (2), free curcumin was measured by the method described in “b.
Data set [5] is described as follows: in vivo. The following applies: mouse. Here is the method:
Intravenous administration of a single dose of curcumin monoglucuronide was performed to each of the mice at each dose of 125, 250, 500 and 1000 mg/kg, and the toxicity thereof was evaluated. In this regard, the number of mice in each group was set to be n=5.
As the test animals, 6-week old Slc:ICR mice (male, with a body weight of 27 to 31 g, Japan SLC, Inc.), which had been purchased and acclimated to the environment for around 6 days, was used.
Observation of the state of each of the mice was performed by recording the type, extent, expression time, recovery time, and death (death detection) time of all of the toxic signs observed macroscopically.
Observation was performed at a time immediately after administration, at a time after each lapse of 30 minutes, 1, 2, 4 and 6 hours from the start of administration, and once a day from the day following the date of administration (up to after the lapse of 14 days from the start of administration).
The body weight was measured by using an electronic balance (UW4200S, Shimadzu Corporation) immediately before administration, and after each lapse of 1, 3, 7, 10 and 14 days from the administration.
Blood biochemical test was performed by the following method. That is, mice were fasted for 4 hours or more after the end of the mouse observation period (after the lapse of 14 days from the start of administration), the fasted mice were subjected to laparotomy under anesthesia by intraperitoneal administration of pentobarbital sodium, and the blood was collected from the abdominal aorta (the amount of the blood was 0.6 mL or more). Next, the collected blood was anti-coagulated with heparin sodium, and then the anti-coagulated blood was centrifuged (4° C., 3000 rpm, for 10 minutes) to obtain the plasma, and transaminase (AST and ALT) contained in the plasma was measured.
After the end of the observation period (after the lapse of 14 days from the start of administration), autopsy was performed as follows: blood was collected from each of the mice under anesthesia with pentobarbital sodium; and then the mice were sacrificed by exsanguination by cutting the abdominal aorta and the caudal vena; each of the sacrificed mice was dissected according to a pathological technique; and the cranium, the intrathoracic organs, the intraperitoneal organs, and the tissues thereof were observed macroscopically.

Data set [6] deals with A549. Conditions: A549, in vitro; cited from earlier work.
Data set [7] relates to colorectal cancer cells derived from adult human colon HCT116. The data set can be described thus: Anti-tumor effect by intravenous administration of curcumin conjugates (tumor size, HCT116 transplanted mice). The data set is classed as in vivo, BALB/cAnNcr j-nu/nu (homo) mice. The following applies: HCT116 mouse. The text has this:
1×10^7 or 4×10^6 colorectal cancer cells derived from adult human […] colon HCT116 (ATCC No. CCL-247) were transplanted subcutaneously into the flank of each of the test animals by using a 27 G injection needle.
In this regard, in the control group, mice to which water for injection excluding curcumin monoglucuronide had been administered intravenously were used.
For the tumor size, after each lapse of 0, 4, 7, 11 and 14 days from the start of administration or after each lapse of 0, 4, 7, 11, 14, 18 and 21 days from the start of administration, the length, width and height of the tumor were measured by using a vernier caliper, and the tumor size was calculated by the following equation. Tumor size (mm^3)=length×width×height×0.5 (5) Concentration of Curcumin Conjugates and Free Curcumin in Tumor Tissue

In data set [8] the test system is Jurkat cells. The following applies: in vitro; cited from earlier work.
A short description of data set [9]: Serum biochemical test (liver and biliary diseases set, 21 items) in tumor-bearing mice. The following applies: 30 mg/kg i.v., 14 days from start of administration. The data set is classed as in vivo, BALB/cAnNcr j-nu/nu (homo) mice.
Data set [10] deals with human hepatocellular carcinoma cell lines (HepG2 cells). The following applies: compared to free curcumin; cited from earlier work.

SMILES strings stand for the structures.

Usually LD50 stands for the dose expected to kill half of the subjects tested. For `COc1cc(/C=C/C(O)=C/C(=O)/C=C/c2ccc(O[C@@H]3O[C@H](C(=O)O)[C@@H](O)[C@H](O)[C@H]3O)c(OC)c2)ccc1O` [curcumin monoglucuronide], the “cell growth inhibitory effect” value in data set [1] is on record as “there is no such an effect”; in data set [2] it was “the effect was not found”; in data set [3] it was “there is no such an effect”; in [6] it was “there is no such an effect”; in [8], “there is no such an effect”. For the same compound, the “concentration of the curcumin contained in the enzyme-treated sample” value in data set [4] is 159.1 ± 6.1 ng/mL. Besides, the “prone position and reduction of locomotor activity, number of mice” value in data set [5] (male, Slc:ICR) was determined as 5. Besides, the “reduction of locomotor activity, number of mice” value in [5] (male, Slc:ICR) was determined as 5. Also, the LD50 at 14 days in data set [5] (male, Slc:ICR, iv) was 500 to 1000 mg/kg. In addition, the autopsy findings entry in data set [5] was “no abnormality was found”. Further, the “state of mice by macroscopy” value in [5] is given as “no abnormality was found”. Moreover, the tumor size in data set [7] (30 mg/kg i.v., 0 day from start of administration) worked out at 142.9±45.5 mm^3; in data set [7] (30 mg/kg i.v., 4 days), 275.1±88.1 mm^3; in data set [7] (30 mg/kg i.v., 11 days), 489.4±147.8 mm^3; in data set [7] (30 mg/kg i.v., 14 days), 581.2±197.4 mm^3; in data set [7] (90 mg/kg i.v., 0 day from start of administration), 17.4±3.2 mm^3; in data set [7] (90 mg/kg i.v., 4 days) it was 23.6±8.4 mm^3. The tumor size is reported as 42.6±16.6 mm^3 in [7] (90 mg/kg i.v., 7 days); 77.5±28.9 mm^3 in data set [7] (90 mg/kg i.v., 11 days); 122.9±42.6 mm^3 in data set [7] (90 mg/kg i.v., 14 days); 204.4±76.2 mm^3 in [7] (90 mg/kg i.v., 18 days); 190.2±70.1 mm^3 in [7] (90 mg/kg i.v., 21 days). Moreover, the “serum biochemical test values (liver and biliary diseases set, 21 items)” value in [9] is reported as “no abnormality was found in the test values”. The “influence on the gene expression” value in [10] is “the action was extremely low”.
